# Results published in ChEMBL document CHEMBL5537193, “Multitargeting HDAC Inhibitors Containing a RAS/RAF Protein Interfering Unit” (J Med Chem, 2024).
# pIC50: −log10 of the molar value. Activity calls are given as the source filed them. No cut-off for these calls is given here.
# Key:
# [1] = Elimination rate constant in Sprague-Dawley rat at 15 mg/kg, ip measured after 24 hrs by LC-MS/MS analysis; format: ADME, organism-based; settings: in vivo
# [2] = system: HT-29; test: Effect on MEK protein expression in human HT-29 cells at 2 uM incubated for 24 hrs by Western blot analysis; format: functional, cell-based
# [3] = target: T1, Serine/threonine-protein kinase PLK1 (Homo sapiens, UniProt P53350); test: Inhibition of PLK1 (unknown origin) at 10 uM relative to control
# T1 sequence (P53350 whole entry): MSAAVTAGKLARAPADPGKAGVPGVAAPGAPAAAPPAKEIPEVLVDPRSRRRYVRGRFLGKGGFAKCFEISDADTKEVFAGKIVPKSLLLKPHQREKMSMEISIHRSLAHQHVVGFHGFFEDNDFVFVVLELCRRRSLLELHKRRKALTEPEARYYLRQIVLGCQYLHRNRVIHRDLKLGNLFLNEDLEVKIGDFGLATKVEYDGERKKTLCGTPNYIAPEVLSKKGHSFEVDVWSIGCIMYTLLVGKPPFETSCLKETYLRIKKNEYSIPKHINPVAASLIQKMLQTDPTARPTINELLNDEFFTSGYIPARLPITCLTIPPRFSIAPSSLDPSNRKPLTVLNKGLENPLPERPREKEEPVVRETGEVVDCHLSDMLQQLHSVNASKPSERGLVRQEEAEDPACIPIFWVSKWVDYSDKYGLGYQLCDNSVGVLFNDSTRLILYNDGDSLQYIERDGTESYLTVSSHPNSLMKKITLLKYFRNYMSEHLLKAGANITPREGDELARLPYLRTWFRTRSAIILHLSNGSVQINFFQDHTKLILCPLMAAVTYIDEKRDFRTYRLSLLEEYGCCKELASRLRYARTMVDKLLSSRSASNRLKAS
# [4] = system: PANC-1; test: Inhibition of MAPK signaling pathway in human PANC-1 cells assessed as inhibition of MEK phosphorylation at 2 uM incubated for 24 hrs by Western blot analysis; format: cell-based
# [5] = system: HT-29; test: Effect on alpha-tubulin expression in tumor of BALB/c mouse xenografted with human HT-29 cells at 7.5 to 15 mg/kg, ip administered once every 2 days for 12 times and measured after 24 days by Western blot analysis; format: functional, organism-based; settings: Neoplasm, dose 7.5-15 mg/kg, time 24.0 day
# [6] = system: PANC-1; test: Effect on MEK protein expression in human PANC-1 cells at 2 uM incubated for 24 hrs by Western blot analysis; format: functional, cell-based
# [7] = system: Mus musculus; test: In vivo inhibition of MAPK signaling pathway in BALB/c mouse xenografted with human HT-29 cells assessed as inhibition of c-RAF phosphorylation at Ser338 residue administered intraperitoneally once every 2 days for 12 times and measured after 24 days by Western blot analysis; format: functional; settings: dose 7.5-15 mg/kg, route ip, time 24.0 day
# [8] = system: Mus musculus; test: In vivo inhibition of HDAC3 in BALB/c mouse xenografted with human HT-29 cells assessed as induction of histone H3 acetylation administered intraperitoneally once every 2 days for 12 times and measured after 24 days by Western blot analysis; format: functional; settings: dose 7.5-15 mg/kg, route ip, time 24.0 day
# [9] = system: PANC-1; test: Cell cycle arrest in human PANC-1 cells assessed as accumulation of cells at G2-M phase at 2 uM incubated for 24 hrs by PI/RNase staining based flow cytometric analysis; format: functional
# [10] = system: L02; test: cells; settings: Homo sapiens, L02, 72 h
# Description: Cytotoxicity against human L02 cells assessed as inhibition of cell growth incubated for 72 hrs by MTT assay
# [11] = system: HT-29; test: Effect on alpha-tubulin expression in human HT-29 cells at 2 uM incubated for 24 hrs by Western blot analysis; format: functional, cell-based
# [12] = system: MCF7; test: cells; settings: Homo sapiens, MCF7, 72 h
# Description: Cytotoxicity against human MCF7 cells assessed as inhibition of cell growth incubated for 72 hrs by MTT assay
# [13] = system: HT-29; test: Inhibition of MAPK signaling pathway in human HT-29 cells assessed as inhibition of MEK phosphorylation at 2 uM incubated for 24 hrs by Western blot analysis; format: cell-based
# [14] = Metabolic stability in human liver microsomes assessed as half-life at 1 uM measured upto 40 mins by LC-MS/MS analysis; format: ADME, Microsome
# [15] = system: PANC-1; test: Induction of apoptosis in human PANC-1 cells assessed as increase in cleaved caspase-9 expression level at 2 uM incubated for 24 hrs by Western blot analysis; format: functional, cell-based
# [16] = Toxicity in BALB/c nude mouse xenografted with human HT-29 cells assessed as change in lung histopathology at 10 to 15 mg/kg, ip administered once daily for 24 days by H&E staining based analysis; format: organism-based; settings: in vivo, 576 h, dose 10-15 mg/kg, time 24 day
# [17] = system: HT-29; test: Antitumor activity against human HT-29 cells xenografted in BALB/c nude mouse assessed as tumor growth inhibition at 15 mg/kg, ip administered once a day for 24 days relative to control; format: functional; settings: HT-29, 576 h, time 24 day, read-out: TGI
# [18] = system: HT-29; test: Inhibition of MAPK signaling pathway in human HT-29 cells assessed as inhibition of ERK1/2 phosphorylation at 2 uM incubated for 24 hrs by Western blot analysis; format: cell-based
# [19] = system: Mus musculus; test: In vivo inhibition of MAPK signaling pathway in BALB/c mouse xenografted with human HT-29 cells assessed as inhibition of ERK1/2 phosphorylation administered intraperitoneally once every 2 days for 12 times and measured after 24 days by Western blot analysis; format: functional; settings: dose 7.5-15 mg/kg, route ip, time 24.0 day
# [20] = system: PANC-1; test: Effect on RAS protein expression in human PANC-1 cells at 2 uM incubated for 24 hrs by Western blot analysis; format: functional, cell-based
# [21] = system: HT-29; test: Effect on MEK expression in tumor of BALB/c mouse xenografted with human HT-29 cells at 7.5 to 15 mg/kg, ip administered once every 2 days for 12 times and measured after 24 days by Western blot analysis; format: functional, organism-based; settings: Neoplasm, dose 7.5-15 mg/kg, time 24.0 day
# [22] = system: PANC-1; test: Inhibition of MAPK signaling pathway in human PANC-1 cells assessed as inhibition of ERK1/2 phosphorylation at 2 uM incubated for 24 hrs by Western blot analysis; format: cell-based
# [23] = system: Mus musculus; test: In vivo inhibition of MAPK signaling pathway in BALB/c mouse xenografted with human HT-29 cells assessed as inhibition of MEK phosphorylation administered intraperitoneally once every 2 days for 12 times and measured after 24 days by Western blot analysis; format: functional; settings: dose 7.5-15 mg/kg, route ip, time 24.0 day
# [24] = system: HT-29; test: Antitumor activity against human HT-29 xenografted in BALB/c nude mouse assessed as tumor growth inhibition at 7.5 mg/kg, ip administered once every 2 days for 12 times for 24 days relative to control; format: functional; settings: HT-29, 576 h, time 24 day, read-out: TGI
# [25] = system: HT-29; test: Induction of apoptosis in human HT-29 cells assessed as apoptotic ratio at 2 uM incubated for 24 hrs by flow cytometric analysis; format: functional
# [26] = target: T1, Serine/threonine-protein kinase PLK1; test: Inhibition of PLK1 (unknown origin)
# [27] = system: PANC-1; test: Induction of apoptosis in human PANC-1 cells incubated for 24 hrs by flow cytometric analysis; format: functional, cell-based; settings: dose 1-4 µM
# [28] = MRT (0 to t) in Sprague-Dawley rat at 15 mg/kg, ip measured after 24 hrs by LC-MS/MS analysis; format: ADME, organism-based; settings: in vivo
# [29] = Toxicity in BALB/c nude mouse xenografted with human HT-29 cells assessed as change in body weight at 7.5 to 15 mg/kg, ip administered once every 2 days for 12 times for 24 days; format: organism-based; settings: in vivo, 576 h, dose 7.5-15 mg/kg, time 24 day
# [30] = system: K562; test: cells; settings: Homo sapiens, K562, 72 h
# Description: Cytotoxicity against human K562 cells assessed as inhibition of cell growth incubated for 72 hrs by MTT assay
# [31] = system: HT-29; test: Effect on RAS expression in tumor of BALB/c mouse xenografted with human HT-29 cells at 7.5 to 15 mg/kg, ip administered once every 2 days for 12 times and measured after 24 days by Western blot analysis; format: functional, organism-based; settings: Neoplasm, dose 7.5-15 mg/kg, time 24.0 day
# [32] = Toxicity in BALB/c nude mouse xenografted with human HT-29 cells assessed as change in liver histopathology at 10 to 15 mg/kg, ip administered once daily for 24 days by H&E staining based analysis; format: organism-based; settings: in vivo, 576 h, dose 10-15 mg/kg, time 24 day
# [33] = Metabolic stability in mouse liver microsomes assessed as half-life at 1 uM measured upto 40 mins by LC-MS/MS analysis; format: ADME, Microsome
# [34] = Metabolic stability in rat liver microsomes assessed as intrinsic clearance at 1 uM measured upto 40 mins by LC-MS/MS analysis; format: ADME, Microsome; settings: read-out: CLH
# [35] = system: HT-29; test: Effect on RAS protein expression in human HT-29 cells at 2 uM incubated for 24 hrs by Western blot analysis; format: functional, cell-based
# [36] = target: Histone deacetylase 4 (Homo sapiens, UniProt P56524); test: Inhibition of HDAC4 (unknown origin)
# Sequence of Histone deacetylase 4 (P56524 whole entry): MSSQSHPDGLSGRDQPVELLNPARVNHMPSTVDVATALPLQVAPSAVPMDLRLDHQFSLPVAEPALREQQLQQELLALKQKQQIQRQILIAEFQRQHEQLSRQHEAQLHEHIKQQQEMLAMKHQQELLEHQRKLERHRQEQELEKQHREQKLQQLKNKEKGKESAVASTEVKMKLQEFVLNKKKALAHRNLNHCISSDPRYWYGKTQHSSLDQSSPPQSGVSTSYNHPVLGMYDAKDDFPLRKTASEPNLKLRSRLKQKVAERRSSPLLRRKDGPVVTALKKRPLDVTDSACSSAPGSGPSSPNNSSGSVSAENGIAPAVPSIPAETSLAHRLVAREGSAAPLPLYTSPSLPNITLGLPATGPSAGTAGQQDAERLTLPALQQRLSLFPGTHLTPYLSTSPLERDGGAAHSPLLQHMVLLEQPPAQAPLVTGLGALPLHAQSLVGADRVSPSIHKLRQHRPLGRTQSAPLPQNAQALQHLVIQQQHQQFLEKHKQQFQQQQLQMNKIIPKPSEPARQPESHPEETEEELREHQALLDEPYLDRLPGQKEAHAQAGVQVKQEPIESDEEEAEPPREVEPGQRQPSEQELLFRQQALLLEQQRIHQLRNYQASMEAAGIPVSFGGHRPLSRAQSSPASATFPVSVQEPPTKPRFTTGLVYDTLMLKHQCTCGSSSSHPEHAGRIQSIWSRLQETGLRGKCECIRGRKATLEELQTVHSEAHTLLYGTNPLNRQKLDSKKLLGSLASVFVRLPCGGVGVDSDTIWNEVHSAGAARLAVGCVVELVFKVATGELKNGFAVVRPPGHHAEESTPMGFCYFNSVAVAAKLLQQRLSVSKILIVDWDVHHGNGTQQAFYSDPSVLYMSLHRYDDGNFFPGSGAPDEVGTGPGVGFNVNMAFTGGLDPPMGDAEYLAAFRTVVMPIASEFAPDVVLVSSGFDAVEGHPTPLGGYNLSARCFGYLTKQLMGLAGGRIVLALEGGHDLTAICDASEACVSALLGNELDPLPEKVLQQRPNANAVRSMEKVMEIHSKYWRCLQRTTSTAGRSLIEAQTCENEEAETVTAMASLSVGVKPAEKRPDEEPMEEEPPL
# [37] = Metabolic stability in mouse liver microsomes assessed as intrinsic clearance at 1 uM measured upto 40 mins by LC-MS/MS analysis; format: ADME, Microsome; settings: read-out: CLH
structure (smiles),measurement,setting,value
COc1cc(OC)c(/C=C/S(=O)(=O)Cc2ccc(OC)c(NCC(=O)NO)c2)c(OC)c1,k el at 24 h,[1],0.000252 s⁻¹
same,Activity,[2],inactive
same,inhibition,[3],100%
same,inhibition,[4],Active
same,Activity,[5],inactive
same,Activity,[6],inactive
same,inhibition,[7],Dose-Dependent Effect
same,inhibition,[8],Dose-Dependent Effect
same,Activity,[9],Active
same,pIC50,[10],< 4.40
same,Activity,[11],inactive
same,pIC50,[12],6.62
same,inhibition,[13],Active
same,half-life at 1 µM,[14],2.07 h
same,Activity,[15],Active
same,Activity,[16],Non-Toxic
same,inhibition in vivo at 15 mg/kg,[17],86.7%
same,inhibition,[18],Active
same,inhibition,[19],Dose-Dependent Effect
same,Activity,[20],inactive
same,Activity,[21],inactive
same,inhibition,[22],Active
same,inhibition,[23],Dose-Dependent Effect
same,inhibition in vivo at 7.5 mg/kg,[24],64.3%
same,Activity,[25],51.5%
same,pIC50,[26],7.75
same,inhibition,[26],Dose-Dependent Effect
same,Activity,[27],Dose-Dependent Effect
same,MRT last at 24 h,[28],1.34 h
same,Activity,[29],Non-Toxic
same,pIC50,[30],7.70
same,Activity,[31],inactive
same,Activity,[32],Non-Toxic
same,half-life at 1 µM,[33],0.476 h
same,CLint scaled at 1 µM,[34],450 mL/min/kg
same,Activity,[35],inactive
same,pIC50,[36],7.12
same,CLint scaled at 1 µM,[37],191 mL/min/kg
